Assay results reported in ChEMBL document CHEMBL1125964, “Synthesis and biological activivity of juvenele hormone analogues (JHA) for Trypanosoma cruzi” (1991).

Assays:
Type in all cases: functional
Trypanosoma cruzi [1] = experiment: Compound was evaluated for its percent inhibition of thymidine incorporation in Trypanosoma cruzi without killing the cells at 25 degree Celsius and 50 uM/L
Trypanosoma cruzi [2] = experiment: Compound was evaluated for its percent inhibition of growth of Trypanosoma cruzi at of 50 uM/L
Trypanosoma cruzi [3] = experiment: Compound was evaluated for its percent inhibition of thymidine incorporation in Trypanosoma cruzi without killing the cells at 25 degree Celsius and 100 uM/L
Trypanosoma cruzi [4] = experiment: Compound was evaluated for its percent inhibition of growth of Trypanosoma cruzi at 100 uM/L
Trypanosoma cruzi [5] = experiment: Compound was evaluated for its percent inhibition for thymidine incorporation in Trypanosoma cruzi without killing the cells at 25 degree Celsius and 17 uM/L

Structure (SMILES)	Inhibition (Trypanosoma cruzi [1])	inhibition at 50 µM (Trypanosoma cruzi [2])	Inhibition (Trypanosoma cruzi [3])	inhibition at 100 µM (Trypanosoma cruzi [4])	Inhibition (Trypanosoma cruzi [5])
COC(=O)OCCC/C=C(\C)CCC=C(C)C	66.3%	41.3%	95.3%	56%	–
C/C=C\CC/C(C)=C/CCC(C)OC(=O)OCC(C)C (stereo unspecified)	70.1%	47.6%	89.6%	75.4%	–
COC(=O)OC/C=C(\C)CC/C=C(\C)CCC1OC1(C)C (stereo unspecified)	25.7%	44.8%	46.3%	62.8%	–
CC(C)=CCC/C(C)=C/CCCOC(=O)OCC(C)C	88.4%	57.3%	100.1%	94%	50.6%
CC/C(C)=C\CC/C(C)=C/CCC(C)OC(=O)OCC(C)C (stereo unspecified)	62.8%	56.6%	70.8%	68%	–
CCSC(=O)OC(C)CC/C=C(\C)CC/C=C(/C)CC (stereo unspecified)	65.3%	50.7%	75.2%	79.4%	–
CC(C)=CCC/C(C)=C/CCC(C)OC(=O)OCC(C)C (stereo unspecified)	73.3%	70.8%	95.8%	89.6%	–
COC(=O)OC(C)CC/C=C(\C)CCC=C(C)C (stereo unspecified)	75.6%	51%	91.6%	97.5%	–
CC(C)(C)OC(=O)CC(O)COc1ccc(Oc2ccccc2)cc1 (stereo unspecified)	70.6%	67.2%	93.5%	98.8%	–
C=CCOc1ccc(Oc2ccccc2)cc1	60.9%	80.8%	83.9%	95.4%	–
COC(C)(C)CCCC(C)C/C=C/C(C)=C/C(=O)OC(C)C (stereo unspecified)	70.5%	60%	86.5%	92.5%	–
C/C(=C\CCC(C)OC(=O)OCC(C)C)CCC1OC1(C)C (stereo unspecified)	50.8%	33.4%	70%	68%	–
CCSC(=O)OC/C=C(\C)CC/C=C(\C)CCC=C(C)C	57.9%	69.3%	72.6%	94.2%	–
c1ccc(Oc2ccc(OCCOC3CCCCO3)cc2)cc1 (stereo unspecified)	40.8%	57%	86.2%	90.6%	–
CCSC(=O)OC/C=C(\C)CC/C=C(\C)CCC1OC1(C)C (stereo unspecified)	80.7%	90.7%	95.6%	99%	–
